Results from patent US20110052740A1, “Skin Circulation-Improving Agent And Skin Temperature-Elevating Agent” (SHISEIDO COMPANY, LTD., priority 2008, published 2011).

Experiments:
[1] = tested on: sympathetic nerve; assay: Sympathetic nerve suppressing effect (confirmed by the inventors, no method given); details: statement without data
[2] = Study of effect on skin temperature (smelling of test substance, body temperature logger); assay type: in vivo, human; details: for skin temperatures of the fingers: one person, vapor inhaled 3 min from impregnated cotton piece under the nose, 25° C., humidity 50%, FIG. 1; for skin temperatures of the cheeks / skin temperatures of the toes: smell taken with the nose, not illustrated by data
Method: The skin temperature of fingers was measured by use of 8ch Body Temperature Logger (supplied by Nikkiso-Therm Co., Ltd.), and a change in skin temperature due to smelling of a test substance was investigated. The effect on the peripheral skin temperature was thus studied. A solvent extract of a common jasmine (Jasminum officinale) belonging to the Jasminum genus in the Oleaceae family was used as a control, and the evaluation was made in the same manner.
A person was employed as a subject, and the test was made in a constant temperature and humidity room at a temperature of 25° C. and a humidity of 50%.
The subject was seated on an easy chair and allowed to take a rest for 30 minutes. […] The change in peripheral skin temperature was evaluated by use of a value (T value) obtained by subtracting a mean value of the skin temperatures at the two sites of the chest from the mean value of the skin temperatures at the two fingertip sites.
One sequence of measurement tests was composed of (A) a rest for three minutes, (B) attaching of an odorless cotton piece under the nose for three minutes, (C) a rest for three minutes, (D) attaching of a test sample-impregnated cotton piece under the nose for three minutes, (E) a rest for three minutes, (F) attaching of an odorless cotton piece under the nose for three minutes, and (G) a rest for three minutes. The skin temperature was measured successively during the one sequence, and the T values were calculated.
The T values obtained at the times of (B) and (F), at each of which the odorless cotton piece was attached, were taken as the controls and were compared with the T value obtained at the time of (D), at which the vapor of the test sample was inhaled. The effect of each substance on the skin temperature was thus investigated. Specifically, the formula shown below was utilized.
Skin temperature change (° C.)=T value (D)−(mean value of T value (B) and T value (F))

[3] = Study of effect on skin blood circulation (laser Doppler flow-meter, smelling of test sample); assay type: in vivo, human; details: general statement of the inventors' findings; no data shown for substances other than the Arabian jasmine extract
Method: The skin blood circulation rate of fingers was measured by use of the laser Doppler flow-meter (ADVANCE LASER FLOW-METER ALF21), and the effect of the Arabian jasmine extract on the skin blood circulation was evaluated.
Six persons (men and women) were employed as subjects, and the test was made in a constant temperature and humidity room having been adjusted at a temperature of 22° C. and a humidity of 45%. Each of the subjects was seated on an easy chair and allowed to take a rest for 30 minutes. Thereafter, a probe of the flow-meter was fitted to the inner surface side of the third finger of the right hand of the subject, and a change in blood circulation rate with the passage of time was recorded. One sequence of measurement tests was composed of (A) a rest for three minutes, (B) attaching of an odorless cotton piece under the nose for three minutes, (C) a rest for three minutes, (D) attaching of a test sample-impregnated cotton piece under the nose for three minutes, (E) a rest for three minutes, (F) attaching of an odorless cotton piece under the nose for three minutes, and (G) a rest for three minutes. The blood circulation rate was measured successively during the one sequence. […]

Structure (SMILES)	sympathetic nerve suppressing effect [1]	skin temperatures of the fingers [2]	skin temperatures of the cheeks [2]	skin temperatures of the toes [2]	rate of the skin blood circulation (summary of findings) [3]
CCCCC1OC(=O)CC1C (stereo not shown) [3-methyloctano-4-lactone]	has a sympathetic nerve suppressing effect	increased	could be increased	could be increased	increases
CC(=O)OC1CC2CCC1(C)C2(C)C (stereo not shown) [bornyl acetate]	has a sympathetic nerve suppressing effect	increased	could be increased	could be increased	increases
